Source: patent US4247712A, “Preservation of aqueous systems with 2-chloro-3-oxobutyramide derivatives” (Givaudan Corporation, priority 1979, dated 1981)
In brackets after ≈: the same amount, converted by molar mass. Where two headings read alike, the source gives them in different places.

Assays:
Format in all cases: cell-based
A. niger = assay: Effectiveness as slimicide for pulp and paper mill water systems; conditions: range: growth at lower, none at higher, 62.5 = lowest concentration tested, no growth at it
Method: (§1) Various quantities of a 6% solution of this compound in dimethylformamide were incorporated into 24 ml of a test substrate composed as follows: 84.4 g Whatman No. 2 powdered cellulose 2.6 g Sodium nitrate 1.0 g Calcium sulfate 6.5 g Maltose 1.0 g Nutrient Broth, Difco 10.0 ml Mersize Rm […] (Monsanto) 2.5 ml 2% Alum 900 ml Distilled water The samples were inoculated with four different organisms and incubated at 28° C. At weekly intervals the samples were examined for the presence of microbial growth and reinoculated during a total incubation period of four weeks.

P. aeruginosa = assay: as above; conditions: 62.5 = lowest concentration tested, no growth at it
Method: as §1

P. piscarium = assay: as above; conditions: read-out: Effectiveness as slimicide (inhibitory concentration range)
Method: as §1

E. aerogenes = assay: as above; conditions: Klebsiella aerogenes, range: growth at lower, read-out: Effectiveness as slimicide (inhibitory concentration range)
Method: as §1

Pseudomonas aeruginosa [1] = assay: Utility in water and oil emulsions (3.3% cutting oil emulsions); conditions: 28° C., weekly reinoculation, read-out: Minimum Inhibitory Concentration Range
Method: The utility of the 2-chloro-3-oxobutyramide derivatives in water and oil emulsions is illustrated below using a commercially available cutting oil. In running these tests, two-fold serial dilutions of 6% solutions of the compound in dimethylformamide was added to 3.3% cutting oil emulsions. The emulsions were prepared by diluting with water a commercially available cutting oil concentrate. The emulsions were inoculated with a culture of Pseudomonas aeruginosa and incubated at 28° C. on a rotary shaker. At weekly intervals, the emulsions were examined for bacteria by conventional streak-plate methods. The emulsions were then reinoculated with Pseudomonas aeruginosa and reincubated. […] indicate the activity range for that compound.

Aspergillus niger [2] = assay: Utility as a cosmetic preservative (cosmetic lotion); conditions: weekly reinoculation
Method: (§2) The 2-Chloro-3-oxobutyramide derivatives are effective cosmetic preservatives. Two-fold serial dilutions of 6% solutions of the 2-haloacetoacetic acid derivatives in dimethylformamide were added to a cosmetic lotion of the following formulation: |Stearic acid 1.4 g |Arlacel 60 (sorbitan |monostearate) 0.7 g |Tween 20 Polyoxethylene |(20) sorbitan |monostearate 1.6 g |Distilled water 94.0 g The lotions were inoculated with both Pseudomonas aeruginosa and Aspergillus niger and incubated at 28° C. At weekly intervals, the lotions were examined for microorganisms by conventional streak-plate methods or by macroscopic observation. The lotions were then reinoculated with the test organisms and reincubated.

Pseudomonas aeruginosa [3] = assay: as above; conditions: weekly reinoculation
Method: as §2

Penicillium piscarium = assay: General antimicrobial activity, 5-fold serial dilution test in agar (MIC); conditions: 168 h, 28° C., seven days, growth only at lower concentration of range, read-out: minimum inhibitory concentration (MIC), F3
Method: (§3) General antibacterial and antifungal activity was evaluated by a 5-fold serial dilution test in agar. In this test, compounds were prepared as 6% solutions in dimethylformamide or ethanol. The 6% solution was then 5-fold serially diluted in test tubes to give the desired concentrations when mixed with agar and poured into sterile Petri dishes. Tryptone glucose extract agar was used for the bacterial testing; mildew glucose agar for the fungal testing. The bacterial plates were spot inoculated with 24-hour nutrient broth cultures and incubated at 37° C. for 48 hours. The fungal plates were spot inoculated with spore suspensions and incubated at 28° C. for seven days. At the end of the incubation periods, all plates were examined for growth. The minimum inhibitory concentration (MIC) for each organism is expressed in Table I. In the ranges presented, growth is observed only at the lower concentration.
(§4) The activity is presented in Tabular Form (Table I) using the following key.

Aspergillus niger [4] = assay: as above; conditions: 168 h, 28° C., seven days, growth only at lower concentration of range, read-out: minimum inhibitory concentration (MIC), F1
Method: as §3, §4

Staphylococcus aureus = assay: as above; conditions: 37° C., 48 hours, growth only at lower concentration of range, read-out: minimum inhibitory concentration (MIC), B1
Method: as §3, §4

Escherichia coli = assay: as above; conditions: 37° C., 48 hours, growth only at lower concentration of range, read-out: minimum inhibitory concentration (MIC), B2
Method: as §3, §4

Aspergillus oryzae = assay: as above; conditions: 168 h, 28° C., seven days, growth only at lower concentration of range, read-out: minimum inhibitory concentration (MIC), F2
Method: as §3, §4

Aureobasidium pullulans = assay: as above; conditions: 168 h, 28° C., seven days, growth only at lower concentration of range, read-out: minimum inhibitory concentration (MIC), F4
Method: as §3, §4

Bacillus subtilis = assay: as above; conditions: 37° C., 48 hours, growth only at lower concentration of range, read-out: minimum inhibitory concentration (MIC), B5
Method: as §3, §4

Proteus vulgaris = assay: as above; conditions: 37° C., 48 hours, growth only at lower concentration of range, read-out: minimum inhibitory concentration (MIC), B4
Method: as §3, §4

Pseudomonas aeruginosa [5] = assay: as above; conditions: 37° C., 48 hours, growth only at lower concentration of range, read-out: minimum inhibitory concentration (MIC), B3
Method: as §3, §4

[6] = Week 1, 3.3% cutting oil emulsion
[7] = Week 2, 3.3% cutting oil emulsion
[8] = Week 3, 3.3% cutting oil emulsion
[9] = Week 4, 3.3% cutting oil emulsion

CC(=O)NC(=O)C(Cl)C(C)=O (stereo not shown) [N-Acetyl-2-Chloro-3-oxobutyramide, N-Acetyl-2-chloro-3-oxobutyramide]
MIC (A. niger; Aspergillus niger, week 1, 28° C., read-out: Effectiveness as slimicide (inhibitory concentration range)): 62.5 to 125 µg/mL (≈ 352 to 704 µM) | Effectiveness as slimicide (inhibitory concentration range) (A. niger; week 2, 28° C.): 62.5 to 125 µg/mL | Effectiveness as slimicide (inhibitory concentration range) (A. niger; week 3, 28° C.): 62.5 to 125 µg/mL | Effectiveness as slimicide (inhibitory concentration range) (A. niger; week 4, 28° C.): 62.5 to 125 µg/mL | MIC (P. aeruginosa; Pseudomonas aeruginosa, week 1, 28° C., read-out: Effectiveness as slimicide (inhibitory concentration range)): 62.5 µg/mL (≈ 352 µM) | Effectiveness as slimicide (inhibitory concentration range) (P. aeruginosa; week 2, 28° C.): 62.5 µg/mL | Effectiveness as slimicide (inhibitory concentration range) (P. aeruginosa; week 3, 28° C.): 62.5 µg/mL | Effectiveness as slimicide (inhibitory concentration range) (P. aeruginosa; week 4, 28° C.): 62.5 µg/mL | MIC (P. piscarium; week 1, 28° C., 62.5 = lowest concentration tested, no growth at it): 62.5 µg/mL (≈ 352 µM) | MIC (P. piscarium; week 2, 28° C., range: growth at lower, none at higher concentration): 62.5 to 125 µg/mL (≈ 352 to 704 µM) | MIC (P. piscarium; week 3, 28° C., range: growth at lower, none at higher concentration): 62.5 to 125 µg/mL (≈ 352 to 704 µM) | MIC (P. piscarium; week 4, 28° C., range: growth at lower, none at higher concentration): 62.5 to 125 µg/mL (≈ 352 to 704 µM) | MIC (E. aerogenes; week 1, 28° C., none at higher, 62.5 = lowest concentration tested, no growth at it): 62.5 to 125 µg/mL (≈ 352 to 704 µM) | MIC (E. aerogenes; week 2, 28° C., none at higher, 62.5 = lowest concentration tested, no growth at it): 125 to 250 µg/mL (≈ 704 to 1410 µM) | MIC (E. aerogenes; week 3, 28° C., none at higher concentration): 250 to 500 µg/mL (≈ 1410 to 2820 µM) | MIC (E. aerogenes; week 4, 28° C., none at higher concentration): 250 to 500 µg/mL (≈ 1410 to 2820 µM) | MIC (Pseudomonas aeruginosa [1]; [6]): 32 to 63 µg/mL (≈ 180 to 355 µM) | MIC (Pseudomonas aeruginosa [1]; [7]): 63 to 125 µg/mL (≈ 355 to 704 µM) | MIC (Pseudomonas aeruginosa [1]; [8]): 125 to 500 µg/mL (≈ 704 to 2820 µM) | MIC (Pseudomonas aeruginosa [1]; [9]): 125 to 500 µg/mL (≈ 704 to 2820 µM) | minimum inhibitory concentration effective in preventing microbial growth (Aspergillus niger [2]; Week 1, 28° C.): 5 (63-125 mcg/gm) | minimum inhibitory concentration effective in preventing microbial growth (Aspergillus niger [2]; Week 2, 28° C.): 4 (125-250 mcg/gm) | minimum inhibitory concentration effective in preventing microbial growth (Aspergillus niger [2]; Week 3, 28° C.): 3 (250-500 mcg/gm) | minimum inhibitory concentration effective in preventing microbial growth (Aspergillus niger [2]; Week 4, 28° C.): 2 (500-1000 mcg/gm) | minimum inhibitory concentration effective in preventing microbial growth (Pseudomonas aeruginosa [3]; Week 1, 28° C.): 5 (63-125 mcg/gm) | minimum inhibitory concentration effective in preventing microbial growth (Pseudomonas aeruginosa [3]; Week 2, 28° C.): 5 (63-125 mcg/gm) | minimum inhibitory concentration effective in preventing microbial growth (Pseudomonas aeruginosa [3]; Week 3, 28° C.): 4 (125-250 mcg/gm) | minimum inhibitory concentration effective in preventing microbial growth (Pseudomonas aeruginosa [3]; Week 4, 28° C.): 4 (125-250 mcg/gm) | MIC (Penicillium piscarium): 76.8 to 384 µg/mL (≈ 432 to 2160 µM) | MIC (Aspergillus niger [4]): 76.8 to 384 µg/mL (≈ 432 to 2160 µM) | MIC (Staphylococcus aureus): 76.8 to 384 µg/mL (≈ 432 to 2160 µM) | MIC (Escherichia coli): 15.3 to 76.8 µg/mL (≈ 86.2 to 432 µM) | MIC (Aspergillus oryzae): 76.8 to 384 µg/mL (≈ 432 to 2160 µM) | MIC (Aureobasidium pullulans): 76.8 to 384 µg/mL (≈ 432 to 2160 µM) | MIC (Bacillus subtilis): 76.8 to 384 µg/mL (≈ 432 to 2160 µM) | MIC (Proteus vulgaris): 76.8 to 384 µg/mL (≈ 432 to 2160 µM) | MIC (Pseudomonas aeruginosa [5]): 15.3 to 76.8 µg/mL (≈ 86.2 to 432 µM)

CCOC(=O)NC(=O)C(Cl)C(C)=O (stereo not shown) [R1=H, R2=COOC2 H5, N-Carboethoxy-2-chloroacetoacetamide]
MIC (Pseudomonas aeruginosa [1]; [6]): 32 to 63 µg/mL (≈ 154 to 303 µM) | MIC (Pseudomonas aeruginosa [1]; [7]): 63 to 125 µg/mL (≈ 303 to 602 µM) | MIC (Pseudomonas aeruginosa [1]; [8]): 63 to 125 µg/mL (≈ 303 to 602 µM) | MIC (Pseudomonas aeruginosa [1]; [9]): 125 to 500 µg/mL (≈ 602 to 2410 µM) | minimum inhibitory concentration effective in preventing microbial growth (Aspergillus niger [2]; Week 1, 28° C.): 4 (125-250 mcg/gm) | minimum inhibitory concentration effective in preventing microbial growth (Aspergillus niger [2]; Week 2, 28° C.): 3 (250-500 mcg/gm) | minimum inhibitory concentration effective in preventing microbial growth (Aspergillus niger [2]; Week 3, 28° C.): 3 (250-500 mcg/gm) | minimum inhibitory concentration effective in preventing microbial growth (Aspergillus niger [2]; Week 4, 28° C.): 3 (250-500 mcg/gm) | minimum inhibitory concentration effective in preventing microbial growth (Pseudomonas aeruginosa [3]; Week 1, 28° C.): 5 (63-125 mcg/gm) | minimum inhibitory concentration effective in preventing microbial growth (Pseudomonas aeruginosa [3]; Week 2, 28° C.): 4 (125-250 mcg/gm) | minimum inhibitory concentration effective in preventing microbial growth (Pseudomonas aeruginosa [3]; Week 3, 28° C.): 4 (125-250 mcg/gm) | minimum inhibitory concentration effective in preventing microbial growth (Pseudomonas aeruginosa [3]; Week 4, 28° C.): 4 (125-250 mcg/gm) | MIC (Penicillium piscarium): 76.8 to 384 µg/mL (≈ 370 to 1850 µM) | MIC (Aspergillus niger [4]): 76.8 to 384 µg/mL (≈ 370 to 1850 µM) | MIC (Staphylococcus aureus): 76.8 to 384 µg/mL (≈ 370 to 1850 µM) | MIC (Escherichia coli): 76.8 to 384 µg/mL (≈ 370 to 1850 µM) | MIC (Aspergillus oryzae): 76.8 to 384 µg/mL (≈ 370 to 1850 µM) | MIC (Aureobasidium pullulans): 76.8 to 384 µg/mL (≈ 370 to 1850 µM) | MIC (Bacillus subtilis): 76.8 to 384 µg/mL (≈ 370 to 1850 µM) | MIC (Proteus vulgaris): 76.8 to 384 µg/mL (≈ 370 to 1850 µM) | MIC (Pseudomonas aeruginosa [5]): 76.8 to 384 µg/mL (≈ 370 to 1850 µM)
